From the NIST ThermoML archive (doi:10.1021/je500079y)

Assay: wn = mass fraction of the nth substance listed
Details: 101 kPa, Liquid, Vibrating tube method

CCOS(=O)(=O)[O-].CCn1cc[n+](C)c1 [1-ethyl-3-methylimidazolium ethyl sulfate] + O=C[C@H](O)[C@@H](O)[C@H](O)[C@H](O)CO
mass density [kg/m3]
Details	w2 = 0.046	w2 = 0.059	w2 = 0.097	w2 = 0.134	w2 = 0.154	w2 = 0.18
278.15 K	1260.18	1263.04	1271.43	1279.83	1284.18	1290.02
283.15 K	1256.74	1259.61	1268.01	1276.43	1280.78	1286.63
288.15 K	1253.31	1256.19	1264.58	1273.02	1277.37	1283.21
293.15 K	1249.88	1252.77	1261.19	1269.61	1273.96	1279.8
298.15 K	1246.45	1249.35	1257.81	1266.25	1270.6	1276.37
303.15 K	1243.04	1245.93	1254.43	1262.9	1267.26	1273
308.15 K	1239.63	1242.53	1251.04	1259.54	1263.91	1269.64
313.15 K	1236.25	1239.14	1247.66	1256.17	1260.56	1266.26
318.15 K	1232.88	1235.77	1244.29	1252.82	1257.21	1262.88
323.15 K	1229.52	1232.42	1240.94	1249.47	1253.87	1259.51
328.15 K	1226.18	1229.08	1237.6	1246.13	1250.54	1256.14
333.15 K	1222.86	1225.74	1234.28	1242.81	1247.23	1252.8
338.15 K	1219.54	1222.46	1230.97	1239.5	1243.93	1249.49
343.15 K	1216.24	1219.17	1227.66	1236.2	1240.64	1246.21

OC[C@@H](O)[C@@H](O)[C@H](O)[C@@H](O)CO [D-sorbitol] + CCOS(=O)(=O)[O-].CCn1cc[n+](C)c1
mass density [kg/m3]
Details	w1 = 0.037	w1 = 0.056	w1 = 0.113	w1 = 0.16	w1 = 0.182	w1 = 0.202
278.15 K	1255.77	1258.66	1267.3	1274.68	1278.11	1281.13
283.15 K	1252.33	1255.52	1263.85	1271.21	1274.65	1277.67
288.15 K	1248.88	1251.77	1260.41	1267.76	1271.19	1274.21
293.15 K	1245.42	1248.33	1256.99	1264.34	1267.76	1270.77
298.15 K	1241.97	1244.88	1253.56	1260.93	1264.36	1267.36
303.15 K	1238.54	1241.45	1250.14	1257.52	1260.96	1263.97
308.15 K	1235.13	1238.04	1246.73	1254.11	1257.55	1260.56
313.15 K	1231.74	1234.65	1243.33	1250.71	1254.15	1257.16
318.15 K	1228.36	1231.27	1239.95	1247.32	1250.77	1253.77
323.15 K	1225	1227.91	1236.59	1243.95	1247.4	1250.4
328.15 K	1221.65	1224.56	1233.25	1240.6	1244.04	1247.03
333.15 K	1218.32	1221.23	1229.92	1237.26	1240.7	1243.69
338.15 K	1215	1217.9	1226.61	1233.93	1237.37	1240.35
343.15 K	1211.69	1214.59	1223.3	1230.62	1234.06	1237.03

O=C(CO)[C@@H](O)[C@H](O)[C@H](O)CO [D-fructose] + CCOS(=O)(=O)[O-].CCn1cc[n+](C)c1
mass density [kg/m3]
Details	w1 = 0.069	w1 = 0.104	w1 = 0.171	w1 = 0.248	w1 = 0.266	w1 = 0.307
278.15 K	1265.07	1272.55	1287.93	1306.03	1310.46	1320.13
283.15 K	1261.63	1269.11	1284.51	1302.63	1307.07	1316.76
288.15 K	1258.21	1265.68	1281.07	1299.21	–	1313.36
293.15 K	1254.78	1262.28	1277.63	1295.77	1300.21	1309.93
298.15 K	1251.35	1258.88	1274.21	1292.29	1296.72	1306.43
303.15 K	1247.93	1255.47	1270.78	1288.73	1293.13	1302.82
308.15 K	1244.5	1252.05	1267.3	1285.14	1289.48	1299.08
313.15 K	1241.08	1248.62	1263.76	1281.5	1285.81	1295.34
318.15 K	1237.67	1245.19	1260.19	1277.84	1282.13	1291.62
323.15 K	1234.25	1241.74	1256.61	1274.19	1278.47	1287.95
328.15 K	1230.83	1238.29	1253.07	1270.58	1274.85	1284.29
333.15 K	1227.42	1234.86	1249.57	1267.01	1271.26	1280.66
338.15 K	1224.03	1231.44	1246.09	1263.46	1267.69	1277.05
343.15 K	1220.66	1228.04	1242.65	1259.93	1264.14	1273.45

OC[C@@H](O)[C@H](O)[C@@H](O)CO [xylitol] + CCOS(=O)(=O)[O-].CCn1cc[n+](C)c1
mass density [kg/m3]
Details	w1 = 0.05	w1 = 0.07	w1 = 0.098	w1 = 0.131	w1 = 0.15	w1 = 0.169
278.15 K	1256.32	1258.74	1261.95	1267.09	1269.01	1271.21
283.15 K	1252.87	1255.31	1258.5	1263.64	1265.56	1267.75
288.15 K	1249.41	1251.86	1255.06	1260.2	1262.12	1264.31
293.15 K	1245.95	1248.4	1251.62	1256.76	1258.69	1260.89
298.15 K	1242.51	1244.96	1248.2	1253.33	1255.25	1257.46
303.15 K	1239.07	1241.53	1244.78	1249.9	1251.82	1254.03
308.15 K	1235.66	1238.11	1241.38	1246.49	1248.41	1250.61
313.15 K	1232.27	1234.72	1238.01	1243.08	1245	1247.2
318.15 K	1228.89	1231.34	1234.65	1239.7	1241.62	1243.81
323.15 K	1225.53	1227.97	1231.3	1236.33	1238.25	1240.44
328.15 K	1222.18	1224.62	1227.97	1232.97	1234.89	1237.08
333.15 K	1218.84	1221.29	1224.64	1229.63	1231.55	1233.73
338.15 K	1215.52	1217.96	1221.33	1226.3	–	1230.39
343.15 K	1212.21	1214.65	1218.02	1222.98	–	1227.06
